Blank lines part the entries; values can stand above or below the molecule they belong to.
Legend:
tubulin = assay: Binding of S versus R enantiomers to tubulin; settings: S enantiomer versus corresponding R enantiomer
isolated bovine tubulin = assay: Binding assay, tritiated compound 1 as probe, isolated bovine tubulin; settings: 100 μM final concentration; 10 μM tubulin; 30 minutes preincubation, 120 minutes with tritiated compound 1 at 37° C.
Protocol: Assay mixtures contained 10 μM isolated tubulin in 1.0 M sodium glutamate, pH 6.6 containing 1 mM MgCl2, and 2.5 μDMSO (control) or 2.5 μl of test compound dissolved in DMSO in 0.5 ml polypropylene tubes. Mixtures were incubated at 37° C. for 30 minutes, then 2.5 μl of a 640 μM solution of tritium-labeled compound 1 in DMSO was added. After further incubation at 37° C. for 120 minutes, aliquots (80 μl) of the assay mixtures were applied to 2.3 cm diameter Whatman 3MM filter paper disks, which were dried for 15 seconds under warm air, immersed in 3 ml of ice-cold 10% trichloroacetic acid, and left overnight at 4° C. Disks were transferred to 5% trichloroacetic acid for 30 minutes, washed twice more in 5% trichloroacetic acid, washed for 30 minutes at 37° C. in ethanol/ether (1:1, v/v), then for 15 min at room temperature in ethanol/ether (1:1, v/v), and finally in two successive washes for 15 minutes each in ether at room temperature. The disks were dried, transferred to scintillation vials containing 10 ml of Hydrofluor™ and counted in a scintillation counter.

[1] = tested on: tubulin in colon cancer cell line HCT-116; assay: Whole cell binding assay, tritiated S-enantiomer of compound 2 as probe, colon cancer cell line HCT-116; settings: for Binding of radioligand (% control): HCT-116, 1 hour preincubation, 1 hour with radioligand; for Effect on binding of the radioligand (in words): HCT-116, tritiated S-enantiomer of compound 2
Protocol: Effect of antitubulin compounds on binding of the tritiated S-enantiomer of compound 2 to tubulin in a whole cell binding assay using the colon cancer cell line HCT-116 is shown by this example.
The colon cancer cell line HCT-116 (obtained from the American Type Culture Collection) was cultured in 75 cm^2 flasks containing McCoy's 5a Modified Medium with 10% heat-inactivated fetal bovine serum, 50 U/ml of penicillin G and 50 U/ml of streptomycin sulfate. A cell suspension was prepared by trypsinization of the culture, and adjusted to a density of 10^6 cells/ml by dilution into incomplete medium (medium lacking serum, penicillin G and streptomycin). Aliquots (150 μl) of cell suspension were added to wells of 96-well glass fiber filter plates (Millipore Multiscreen® plates, 1 μm glass fiber, Type B). Wells then received 30 μl of a solution of the test antitubulin compound in incomplete medium/DMSO mixture (8.5:1, v/v) or 30 μl of the incomplete medium/DMSO mixture alone (control). After mixing, the plates were incubated at 37° C. for 1 hour, then 25 μl of 0.8 μM tritium-labeled S-enantiomer of compound 2 was added to each well. After mixing, the plates were incubated at 37° C. for 1 hour, then binding of the radioligand to tubulin was stopped by adding 50 μl of 100 μM unlabeled compound 2. The fluid was removed from the plate by vacuum filtration through the glass fiber, then 100 μl of ice-cold 10% trichloroacetic acid was added to each well. The plates were incubated for 1 h at 4° C., then the fluid was removed by filtration. Ice-cold ethanol (250 μl) was added to each well, the plates incubated for 1 h at 4° C., then the ethanol was removed by filtration. Wells were washed 4 more times with 250 μl of ice-cold ethanol. After drying the plates at 37° C. for 20 min, the glass fiber filters were punched out of the wells into scintillation vials, 5 ml of scintillation fluid was added to each vial, and the samples were counted in a scintillation counter to determine the amount of bound radioactivity. The effects of different antitubulin compounds on binding of the radioligand are presented in Table 11 with the amounts of radioligand bound in the presence of each antitubulin compound expressed as a percentage of the amount of radioligand bound in the control.

plant tubulin = settings: cited from earlier work
brain tubulin = settings: cited from earlier work

Binding of the S enantiomer to tubulin compared with the R enantiomer (tubulin): bind more effectively to tubulin
melting point: 140 to 141 °C
SMILES: CCC(C)(NC(=O)c1cc(Cl)c(N)c(C=NOC)c1)C(=O)CCl (stereo not shown) [Compound 2, 4-amino-3-chloro-5-methoxyiminomethyl-N-(3-chloro-1-ethyl-1-methyl-2-oxopropyl)benzamide]

SMILES: COC(=O)Nc1nc2ccc(C(=O)c3cccs3)cc2[nH]1 [Nocodazole, nocodazole]
Binding (% control) (isolated bovine tubulin): 31.3 % control
Binding of radioligand (% control) ([1]; 0.1 μM): 102 % control
Binding of radioligand (% control) ([1]; 1 μM): 99 % control
Binding of radioligand (% control) ([1]; 10 μM): 74 % control
Binding of radioligand (% control) ([1]; 100 μM): 44 % control
Effect on binding of the radioligand (in words) [1]: reduced binding of the radioligand

SMILES: COc1cc([C@@H]2c3cc4c(cc3[C@H](O)[C@H]3COC(=O)[C@H]23)OCO4)cc(OC)c1OC [Podophyllotoxin, podophyllotoxin]
Binding (% control) (isolated bovine tubulin): 21.7 % control
Binding of radioligand (% control) ([1]; 0.1 μM): 37 % control
Binding of radioligand (% control) ([1]; 1 μM): 0 % control
Binding of radioligand (% control) ([1]; 10 μM): 0 % control
Binding of radioligand (% control) ([1]; 100 μM): 0 % control
Effect on binding of the radioligand (in words) [1]: reduced binding of the radioligand

Binding (% control) (isolated bovine tubulin): 90.7 % control
SMILES: CC[C@]1(O)C[C@@H]2CN(CCc3c([nH]c4ccccc34)[C@@](C(=O)OC)(c3cc4c(cc3OC)N(C)[C@H]3[C@@](O)(C(=O)OC)[C@H](OC(C)=O)[C@]5(CC)C=CCN6CC[C@]43[C@@H]65)C2)C1 [Vinblastine, vinblastine]
Binding of radioligand (% control) ([1]; 0.1 μM): 155 % control
Binding of radioligand (% control) ([1]; 1 μM): 218 % control
Binding of radioligand (% control) ([1]; 10 μM): 286 % control
Binding of radioligand (% control) ([1]; 100 μM): 323 % control
Effect on binding of the radioligand (in words) [1]: increased binding of the radioligand

SMILES: COP(=S)(NC(C)C)Oc1ccc(C)cc1[N+](=O)[O-] (stereo not shown) [amiprophosmethyl]
Inhibition of plant tubulin polymerization (plant tubulin): inhibit the polymerization of plant tubulin
Inhibition of brain tubulin polymerization (brain tubulin): not brain tubulin
